According to patent US5474996A, “Pyrimidine derivatives” (Roussel Uclaf, priority 1991, dated 1995):

Biological target: T1, Angiotensin II Receptor (Rattus norvegicus, UniProt P25095)
T1 construct: A fresh membrane preparation obtained from rat's liver was used; from tissue; host or cells: rat liver, fresh membrane preparation
T1 sequence (P25095 1-359): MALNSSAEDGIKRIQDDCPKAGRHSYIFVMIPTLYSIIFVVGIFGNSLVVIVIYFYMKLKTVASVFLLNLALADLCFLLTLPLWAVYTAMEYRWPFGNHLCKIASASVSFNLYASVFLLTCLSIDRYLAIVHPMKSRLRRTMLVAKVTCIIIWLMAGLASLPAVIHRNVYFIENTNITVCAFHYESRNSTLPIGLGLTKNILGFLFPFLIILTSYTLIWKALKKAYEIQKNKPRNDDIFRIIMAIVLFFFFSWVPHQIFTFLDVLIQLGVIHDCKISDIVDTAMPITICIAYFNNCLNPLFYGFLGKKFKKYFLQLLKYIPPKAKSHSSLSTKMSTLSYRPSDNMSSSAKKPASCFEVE
Test: Test on the Angiotensin II Receptor: displacement of 125I angiotensin II from a fresh rat liver membrane preparation
Format: binding
Details: rat liver membranes; 125I angiotensin II (25,000 DPM/tube); Tris buffer pH 7.4; 25° C. for 150 minutes; 7 concentrations; read-out: 50% inhibiting concentration (IC50), concentration necessary to displace 50% of the radioactivity specifically fixed on the receptor
Method: A fresh membrane preparation obtained from rat's liver was used and the tissue was ground in a polytron in a Tris 50mMpH 7.4 buffer. The grinding was followed by 3 centrifugations at 30,000 g for 15 minutes with intermediate collection of pellets in the Tris buffer pH 7.4. The last pellets were suspended in an incubation buffer (Tris 20 mM, NaCl […], KCl 10 mM, glucose 5 mM, MgCl2 10 mM, PMSF 0.3 mM, bacitracin 0.1 mM, BSA 0.2%). The 2 ml of aliquoted fractions were distributed in hemolysis tubes and ^125 I angiotensin II (25,000 DPM/tube) and the product to be studied were added. The product was first tested at 3×10^-5 M in triplicate. When the product to be tested displaced more than 50% of the radioactivity specifically linked to the receptor, it was tested again in a range of 7 concentrations to determine the concentration which inhibited 50% of the radioactivity specifically linked to the receptor. In this way, the 50% inhibiting concentration was determined.
The non-specific bond was determined by the addition of the product of Example 94 of the European Patent No. 0,253,310, at 10^-5 M (in triplicate). Incubation took place at 25° C. for 150 minutes, followed by returning to a water bath at 0° C. for 5 minutes, vacuum filtration, rinsing with Tris buffer pH 7.4 and counting the radioactivity in the presence of scintilling Triton. […]

IC50: 242 nM
Compound: CCCCc1nc(Cl)c(CC(=O)O)c(Cc2ccc(-c3ccccc3C(=O)O)cc2)n1 [Example 8, 2-butyl-4-[(2'-carboxy-(1,1'-biphenyl)-4-yl)-methyl)-6-chloro-5-pyrimidineacetic acid]
